Assay results as given in US20150160193A1, “TUMOR CELL ISOLATION/PURIFICATION PROCESS AND METHODS FOR USE THEREOF” (DIATECH ONCOLOGY, priority 2012, published 2015).

Legend:
[1] = test system: Purified breast cancer cells from 67 patient (Pt) biopsies; assay: MiCK assay of drug-induced apoptosis, breast cancer specimens; assay type: cell-based, human; details: for KU Mean / KU Median: kinetic units of apoptosis; for KU Mean: mean over N patient samples (at least 9 per drug); for KU Median: median over N patient samples; for Mean Difference (95% CI) of KU vs Vincristine: drug minus Vincristine
Protocol: Apoptosis(KU)=(VmaxDrug Candidate Treated−VmaxControl)×60×X/(ODcontrol−ODblank)
Within 24 to 48 hours of collection, the specimen was minced, digested with 0.25% trypsin and 0.08% DNase for 1-2 hours at 37 C.°, and then filtered through a 100 micrometer cell strainer. When necessary, non-viable cells were removed by density gradient centrifugation. The cell suspension was then incubated for 30 min at 37° C. in a tissue culture flask to remove macrophages by adherence. For epithelial tumors lymphocytes were removed by 30 minute incubation with CD2 antibody conjugated magnetic beads for T lymphocytes and CD19 antibody conjugated magnetic beads for B lymphocytes. Remaining macrophages were removed, if necessary, using CD14 antibody conjugated magnetic beads. The final cell suspension was plated into a 96-well half-area plate, 120 microliter aliquot per well. The plate was incubated overnight at 37° C. with 5% carbon dioxide humidified atmosphere. 5×10^4 to 1.5×10^5 cells were seeded per well depending on the cell volume to give adequate well-bottom coverage.
Within 24 to 48 hours of collection, the specimen was treated as follows in order to purify and isolate cells from solid tumors: • Take the specimen out of the transport tube. • Put in a petri dish in 13 ml of PBS+high concentration of antibiotics (200 units/ml Penicillin+200 μg/ml streptomycin) and take measurements and picture of the specimen. […] In that case, one may make the determination to do a “pre-filtration” using sterile gauze over a 50 ml tube. Then proceed with the cell strainer filtration process referenced above. • Centrifuge the filtered cell suspension 1500 RPM 5 min • Discard the supernatant. To the pellet, add 5 ml of red blood cell lysis solution (standard NH4Cl containing lysis solution: Nh4Cl0.15M+KHCO3 10 mM+EDTA-4Na 0.1 mM, pH 7.2), incubate 2-3 min and add 5 ml of RPMI 10% FBS. • Centrifuge 5 min 1500 RPM. Resuspend the pellet in RPMI 10% FBS (1-10 ml depending on the pellet size). • Collect the second fraction in the enzyme and repeat the steps above. • Check the viability of all fractions and pool. Do a cytospin stain with Wright Giemsa to verify the cell content of the population. NOTE: this is done numerous times during the process of purification. • 3) When necessary, non-viable cells were removed by density gradient centrifugation. • Density gradient centrifugation (optiprep): first layer=2 ml cells+4.45 ml optiprep 40% in RPMI, second layer=optiprep 22.5% in RPMI, 3rd layer=0.5 ml of RPMI. Centrifuge at 2000 RPM for 20 min • Collect the viable cell layer, add 10 ml of RPMI 10% FBS, centrifuge at 1500 RPM for 5 min • Resuspend the pellet in RPMI 10% FBS (volume depends on the pellet size and on the next step required). • If mucin is present in the specimen: resuspend the pellet in 10 ml of PBS+20 mM DTT and incubate at 4° C. for 30 min to disintegrate the mucin. Wash with RPMI 1500 rpm for 5 min Resuspend the pellet in RPMI 10% FBS. • If the specimen is highly necrotic with presence of debris: Percoll 20% in HBSS, centrifuge at 800×g for 10 min • 4) The cell suspension was then incubated for 20 min at 37° C. in a tissue culture flask to remove macrophages by adherence. • The size and quantity of the flask and the volume used depends on the amount of cells.

[2] = test system: neoplastic cells collected from spleen and abdominal tumor biopsy specimens; assay: MiCK assay, patient specific cancer cell testing (Example 10); assay type: cell-based, human; details: person, tumor of unknown primary; maximum apoptotic response over the concentrations tested
Protocol: The experiments were conducted on neoplastic cells collected from spleen and abdominal tumor biopsy specimens from a person. The tumor specimens were of an unknown primary. The experiment consisted of using a MiCK assay, according to the present disclosure, to test the effectiveness of 37 potential anti-cancer drugs, combinations of these drugs, and various concentrations of these drugs.
Apoptotic readings greater than 5.0KU in the MiCK assay are considered to be highly sensitive and are associated with a good clinical response. […] It should be noted that the alkylating agents cyclophosphamide and ifosfamide require hepatic metabolic transformation to their active metabolite, 4HC and 4HI respectively, and therefore cannot be tested directly in vitro. For the MiCK assay their active metabolites, 4HC and 4HI respectively were used.

[3] = KU compared per patient, % of 14 patients

Row | Structure (SMILES) | Max (Vcr or Vnbl) > Vinor + 0.57 [1, 3] | Vcr and Vnbl and Vinor < 1 [1, 3] | Vinor = Max (Vcr or Vnbl) +/− 0.57 and both > 1 [1, 3] | Vinor > Max (Vcr or Vnbl) by more than 0.57 and Vinroel > 1 [1, 3] | KU Mean [1] | KU Median [1] | Mean Difference (95% CI) of KU vs Vincristine ([1]; patient pairwise comparison) | Mean Difference (95% CI) of KU vs Vincristine ([1]; patient pairwise comparison, listed as vinorelbine) | Mean Difference (95% CI) of KU vs Vnbl ([1]; patient pairwise comparison, drug minus Vnbl) | Max Resp. (KU) [2]
1 | CCC1=C[C@@H]2CN(C1)Cc1c([nH]c3ccccc13)[C@@](C(=O)OC)(c1cc3c(cc1OC)N(C)[C@H]1[C@@](O)(C(=O)OC)[C@H](OC(C)=O)[C@]4(CC)C=CCN5CC[C@]31[C@@H]54)C2 [Vinor, vinorelbine] | (0%) | (14%) | (36%) | (29%) | 1.8 KU | 1.5 KU | 0.63 KU | APOP>vincristine | 0.14 KU | 3.1 KU
2 | CC[C@]1(O)C[C@@H]2CN(CCc3c([nH]c4ccccc34)[C@@](C(=O)OC)(c3cc4c(cc3OC)N(C)[C@H]3[C@@](O)(C(=O)OC)[C@H](OC(C)=O)[C@]5(CC)C=CCN6CC[C@]43[C@@H]65)C2)C1 [Vnbl, Vinblastine] |  |  |  |  | 1.8 KU | 1.5 KU | 0.14 KU |  |  | 1.2 KU
